Measured values: ChEMBL document CHEMBL3044946, “Glyphosate resistance in perennial ryegrass (Lolium perenne L.) from Argentina” (2012)
Activity calls are given as the source filed them. No cut-off for these calls is given here.

What was measured:
Lolium perenne [1] = assay: Herbicidal activity against glyphosate-resistant Lolium perenne (perennial ryegrass) assessed as plant-regrowth at 1440 g ae/ha measured 30 days after compound application; type: functional
Lolium perenne [2] = assay: Induction of shikimate accumulation in leaf sheath of glyphosate-susceptible Lolium perenne (perennial ryegrass) at 1440 g ae/ha measured 48 hr post compound application; type: functional, organism-based
Lolium perenne [3] = assay: Resistance index, ratio of GR50 for glyphosate-resistant Lolium perenne (perennial ryegrass) to GR50 for glyphosate-susceptible Lolium perenne (perennial ryegrass) by plumule growth inhibition study; type: functional
Lolium perenne [4] = assay: Resistance index, ratio of ED50 for glyphosate-resistant Lolium perenne (perennial ryegrass) to ED50 for glyphosate-susceptible Lolium perenne (perennial ryegrass) by plant survival inhibition study; type: functional
Lolium perenne [5] = assay: Herbicidal activity against glyphosate-resistant Lolium perenne (perennial ryegrass) assessed as inhibition of plant survival measured after 15 days post compound application; type: functional
Lolium perenne [6] = assay: Herbicidal activity against glyphosate-resistant Lolium perenne (perennial ryegrass) assessed as regrowth level of controlled plants at 2880 g ae/ha measured 30 days after compound application; type: functional
Lolium perenne [7] = assay: Herbicidal activity against glyphosate-resistant Lolium perenne (perennial ryegrass) assessed as inhibition of plumule growth; type: functional
Lolium perenne [8] = assay: Resistance index, ratio of LD50 for glyphosate-resistant Lolium perenne (perennial ryegrass) to LD50 for glyphosate-susceptible Lolium perenne (perennial ryegrass) by germination inhibition study; type: functional
Lolium perenne [9] = assay: Herbicidal activity against glyphosate-resistant Lolium perenne (perennial ryegrass) assessed as inhibition of germination; type: functional
Lolium perenne [10] = assay: Induction of shikimate accumulation in leaf lamina of glyphosate-susceptible Lolium perenne (perennial ryegrass) at 1440 g ae/ha measured 72 hr post compound application; type: functional, organism-based
Lolium perenne [11] = assay: Herbicidal activity against glyphosate-resistant Lolium perenne (perennial ryegrass) assessed as regrowth level of controlled plants at 720 g ae/ha measured 30 days after compound application; type: functional
Lolium perenne [12] = assay: Herbicidal activity against glyphosate-resistant Lolium perenne (perennial ryegrass) assessed as plant-regrowth at 2880 g ae/ha measured 30 days after compound application; type: functional
Lolium perenne [13] = assay: Herbicidal activity against glyphosate-resistant Lolium perenne (perennial ryegrass) assessed as plant-regrowth at 360 g ae/ha measured 30 days after compound application; type: functional
Lolium perenne [14] = assay: Herbicidal activity against glyphosate-susceptible Lolium perenne (perennial ryegrass) assessed as inhibition of plumule growth; type: functional
Lolium perenne [15] = assay: Reduction in chlorophyll content in glyphosate-susceptible Lolium perenne (perennial ryegrass) at 1000 to 3000 g ae/ha measured after 7 to 10 days post compound application; type: functional, organism-based
Lolium perenne [16] = assay: Induction of shikimate accumulation in leaf blades of glyphosate-susceptible Lolium perenne (perennial ryegrass) at 1440 g ae/ha measured 48 hr post compound application; type: functional, organism-based
Lolium perenne [17] = assay: Induction of shikimate accumulation in leaf lamina of glyphosate-susceptible Lolium perenne (perennial ryegrass) at 1440 g ae/ha measured 24 hr post compound application; type: functional, organism-based
Lolium perenne [18] = assay: Herbicidal activity against glyphosate-susceptible Lolium perenne (perennial ryegrass) assessed as inhibition of germination; type: functional
Lolium perenne [19] = assay: Reduction in chlorophyll content in glyphosate-resistant Lolium perenne (perennial ryegrass) at 1000 to 3000 g ae/ha measured after 10 days post compound application; type: functional, organism-based
Lolium perenne [20] = assay: Induction of shikimate accumulation in leaf sheath of glyphosate-resistant Lolium perenne (perennial ryegrass) at 1440 g ae/ha measured 24 to 72 hr post compound application; type: functional, organism-based
Lolium perenne [21] = assay: Herbicidal activity against glyphosate-resistant Lolium perenne (perennial ryegrass) assessed as regrowth level of controlled plants at 360 g ae/ha measured 30 days after compound application; type: functional
Lolium perenne [22] = assay: Herbicidal activity against glyphosate-resistant Lolium perenne (perennial ryegrass) assessed as plant-regrowth at 720 g ae/ha measured 30 days after compound application; type: functional
Lolium perenne [23] = assay: Herbicidal activity against glyphosate-resistant Lolium perenne (perennial ryegrass) assessed as regrowth level of controlled plants at 1440 g ae/ha measured 30 days after compound application; type: functional
Lolium perenne [24] = assay: Induction of shikimate accumulation in leaf blade of glyphosate-resistant Lolium perenne (perennial ryegrass) at 1440 g ae/ha measured 24 to 72 hr post compound application; type: functional, organism-based
Lolium perenne [25] = assay: Herbicidal activity against glyphosate-susceptible Lolium perenne (perennial ryegrass) assessed as inhibition of plant survival measured after 15 days post compound application; type: functional

Question: For `O=C(O)CNCP(=O)(O)O` [GLYPHOSATE], which Activity (Lolium perenne [1]) is on record?
Answer: Its Activity is 23%.

Question: What about the Activity (Lolium perenne [2]) of the same compound?
Answer: The Activity was “Active”.

Question: And the Ratio (Lolium perenne [3])?
Answer: The Ratio was 4.4.

Question: What about the Ratio (Lolium perenne [4]) of the same compound?
Answer: The Ratio was 10.8.

Question: And the ED50 (Lolium perenne [5])?
Answer: Its ED50 is 1495 gAe/L.

Question: What about the Activity (Lolium perenne [6]) of the same compound?
Answer: Its Activity is 33%.

Question: What about the GR50 (Lolium perenne [7]) of the same compound?
Answer: Its GR50 is 41.5 gAe/L.

Question: What about the Ratio (Lolium perenne [8]) of the same compound?
Answer: The Ratio was 3.2.

Question: And the LD50 (Lolium perenne [9])?
Answer: Its LD50 is 138 gAe/L.

Question: What about the Activity (Lolium perenne [10]) of the same compound?
Answer: The Activity was “Active”.

Question: And the Activity (Lolium perenne [11])?
Answer: The Activity was 48%.

Question: And the Activity (Lolium perenne [12])?
Answer: Its Activity is 25%.

Question: And the Activity (Lolium perenne [13])?
Answer: Its Activity is 6%.

Question: And the GR50 (Lolium perenne [14])?
Answer: Its GR50 is 9.3 gAe/L.

Question: And the Activity (Lolium perenne [15])?
Answer: Its Activity is “Active”.

Question: And the Activity (Lolium perenne [16])?
Answer: Its Activity is “Active”.

Question: What about the Activity (Lolium perenne [17]) of the same compound?
Answer: Its Activity is “Active”.

Question: And the LD50 (Lolium perenne [18])?
Answer: The LD50 was 42 gAe/L.

Question: What about the Activity (Lolium perenne [19]) of the same compound?
Answer: Its Activity is “inactive”.

Question: What about the Activity (Lolium perenne [20]) of the same compound?
Answer: Its Activity is “inactive”.

Question: What about the Activity (Lolium perenne [21]) of the same compound?
Answer: The Activity was 37%.

Question: What about the Activity (Lolium perenne [22]) of the same compound?
Answer: Its Activity is 17%.

Question: What about the Activity (Lolium perenne [23]) of the same compound?
Answer: The Activity was 43%.

Question: What about the Activity (Lolium perenne [24]) of the same compound?
Answer: The Activity was “inactive”.

Question: What about the ED50 (Lolium perenne [25]) of the same compound?
Answer: The ED50 was 138.1 gAe/L.
